Results from US9796671B2, “Aurora kinase inhibitors” (REGENTS OF THE UNIVERSITY OF MINNESOTA, priority 2012, dated 2017).

System: HCT116 cells
Assay: Anchorage-independent growth (soft agar colony formation)
Type: cell-based
Settings: 0.5 μM
Experimental: FIGS. 3A and 3B. Compounds 1-8 suppress the anchorage-independent growth of HCT116 cells. The asterisk indicates a significant (* p<0.05, ** p<0.01) decrease in colony formation in cells treated with each compound compared with the DMSO treated control group. Two concentrations of each compound, 0.5 μM and 5 μM were tested. […] Compounds 2 and 4 had no effect.
Tumor cells are suspended in basal medium Eagle (BME) medium and added to 0.6% agar, with different concentrations of Compound 1 in a base layer and a top layer of 0.3% agar. The cultures are maintained at 37° C. in a 5% CO2 incubator for 1 to 2 weeks and then colonies are counted under a microscope using the Image-Pro Plus software (v.4) program (Media Cybernetics, Silver Spring, Md.).

SMILES | anchorage-independent growth of HCT116 cells (colony formation)
O=C(/C=C/c1ccc2c(c1)OCO2)/C=C1/C(=O)Nc2cccc(Cl)c21 [Compound 4] | no effect
COc1cc(/C=C/C(=O)/C=C2/C(=O)Nc3ccccc32)cc(OC)c1OC [Compound 5] | best efficiency
O=C(/C=C/c1ccc2c(c1)OCO2)/C=C1/C(=O)Nc2ccc(F)cc21 [Compound 6] | best efficiency
COc1cc(/C=C/C(=O)/C=C2/C(=O)Nc3ccccc32)ccc1O [Compound 8] | best efficiency
O=C(/C=C/c1ccc2c(c1)OCO2)/C=C1/C(=O)Nc2ccc(Cl)cc21 [Compound 2] | no effect
